Assay results as given in PubChem BioAssay AID1259407 (Chemical Carcinogenesis Research Information System (CCRIS), 2018).
Activity calls are given as the source filed them. No rule for the calls is given here.

Test system: CCRIS mutagenicity, Ames/micronucleus/aberration tests
Assay: CCRIS mutagenicity studies
[1] = Test System: AMES SALMONELLA TYPHIMURIUM, Strain/Indicator: TA98, Metabolic Activation: NONE, Method: STANDARD PLATE
[2] = Test System: AMES SALMONELLA TYPHIMURIUM, Strain/Indicator: TA100, Metabolic Activation: NONE, Method: STANDARD PLATE
[3] = Test System: AMES SALMONELLA TYPHIMURIUM, Strain/Indicator: TA2637, Metabolic Activation: NONE, Method: STANDARD PLATE
[4] = Test System: AMES SALMONELLA TYPHIMURIUM, Strain/Indicator: TA97, Metabolic Activation: NONE, Method: STANDARD PLATE

CCOP(=S)(OCC)Oc1nc(Cl)c(Cl)cc1Cl
mutagenic call (End Point: In vitro chromosomal aberrations, Test System: Human lymphocytes, Metabolic Activation: None): active; positive (structural changes and ploidy)
mutagenic call (Test System: AMES SALMONELLA TYPHIMURIUM, Strain/Indicator: TA98, Metabolic Activation: NONE, Method: PREINCUBATION): inactive; negative
mutagenic call (Test System: AMES SALMONELLA TYPHIMURIUM, Strain/Indicator: TA98, Metabolic Activation: RAT, LIVER, S-9, AROCLOR 1254, Method: PREINCUBATION): inactive; negative
mutagenic call (Test System: AMES SALMONELLA TYPHIMURIUM, Strain/Indicator: TA100, Metabolic Activation: NONE, Method: PREINCUBATION): inactive; negative
mutagenic call (Test System: AMES SALMONELLA TYPHIMURIUM, Strain/Indicator: TA100, Metabolic Activation: RAT, LIVER, S-9, AROCLOR 1254, Method: PREINCUBATION): inactive; negative
mutagenic call (Test System: AMES SALMONELLA TYPHIMURIUM, Strain/Indicator: TA1535, Metabolic Activation: NONE, Method: PREINCUBATION): inactive; negative
mutagenic call (Test System: AMES SALMONELLA TYPHIMURIUM, Strain/Indicator: TA1535, Metabolic Activation: RAT, LIVER, S-9, AROCLOR 1254, Method: PREINCUBATION): inactive; negative
mutagenic call (Test System: AMES SALMONELLA TYPHIMURIUM, Strain/Indicator: TA1537, Metabolic Activation: NONE, Method: PREINCUBATION): inactive; negative
mutagenic call (Test System: AMES SALMONELLA TYPHIMURIUM, Strain/Indicator: TA1537, Metabolic Activation: RAT, LIVER, S-9, AROCLOR 1254, Method: PREINCUBATION): inactive; negative
mutagenic call (Test System: AMES SALMONELLA TYPHIMURIUM, Strain/Indicator: TA1538, Metabolic Activation: NONE, Method: PREINCUBATION): inactive; negative
mutagenic call (Test System: AMES SALMONELLA TYPHIMURIUM, Strain/Indicator: TA1538, Metabolic Activation: RAT, LIVER, S-9, AROCLOR 1254, Method: PREINCUBATION): inactive; negative
mutagenic call (Test System: CHINESE HAMSTER OVARY, Strain/Indicator: CHO-K1-BH4 (HGPRT)/6-THIOGUANINE, Metabolic Activation: NONE): inactive; negative
mutagenic call (Test System: CHINESE HAMSTER OVARY, Strain/Indicator: CHO-K1-BH4 (HGPRT)/6-THIOGUANINE, Metabolic Activation: RAT, LIVER , S-9, AROCLOR 1254): inactive; negative
mutagenic call (Test System: UDS RAT PRIMARY HEPATOCYTES, Strain/Indicator: THY INCORP, Metabolic Activation: NONE, Method: AUTORADIOGRAPHY): inactive; negative

C[C@H]1C=C(C=O)C(C=O)=C[C@]2(O)CC(C)(C)C[C@H]12
mutagenic call [1]: active; positive
mutagenic call [2]: active; positive
mutagenic call [3]: inactive; negative

[O-][n+]1c2ccc3ccccc3c2cc2c3ccccc3ccc21
mutagenic call (Test System: AMES SALMONELLA TYPHIMURIUM, Strain/Indicator: TA100, Metabolic Activation: GUINEA PIG, LIVER, S-9, 3-METHYLCHOLANTHRENE, Method: STANDARD PLATE): inactive; negative
mutagenic call (Test System: CHINESE HAMSTER V-79, Strain/Indicator: V-79/6-THIOGUANINE, Metabolic Activation: GUINEA PIG, LIVER, S-9, 3-METHYLCHOLANTHRENE): active; positive

N/C(=N\O)c1ccc(O)c(O)c1
mutagenic call [4]: inactive; negative
mutagenic call (Test System: AMES SALMONELLA TYPHIMURIUM, Strain/Indicator: TA97, Metabolic Activation: RAT, LIVER, S-9, DELOR 103, Method: STANDARD PLATE): inactive; negative
mutagenic call [1]: inactive; negative
mutagenic call (Test System: AMES SALMONELLA TYPHIMURIUM, Strain/Indicator: TA98, Metabolic Activation: RAT, LIVER, S-9, DELOR 103, Method: STANDARD PLATE): active; positive
mutagenic call [2]: inactive; negative
mutagenic call (Test System: AMES SALMONELLA TYPHIMURIUM, Strain/Indicator: TA100, Metabolic Activation: RAT, LIVER, S-9, DELOR 103, Method: STANDARD PLATE): inactive; negative
mutagenic call (Test System: AMES SALMONELLA TYPHIMURIUM, Strain/Indicator: TA102, Metabolic Activation: NONE, Method: STANDARD PLATE): inactive; negative
mutagenic call (Test System: AMES SALMONELLA TYPHIMURIUM, Strain/Indicator: TA102, Metabolic Activation: RAT, LIVER, S-9, DELOR 103, Method: STANDARD PLATE): inactive; negative

CC(=O)O[C@H]1[C@@]2(O)CC(C)(C)CC2=C(C=O)[C@@]2(C=O)C[C@@]12C
mutagenic call [1]: inactive; negative
mutagenic call [2]: active; positive
mutagenic call [3]: inactive; negative

Br/C=C/Br
mutagenic call [4]: inactive; negative
mutagenic call (Test System: AMES SALMONELLA TYPHIMURIUM, Strain/Indicator: TA97, Metabolic Activation: RAT, LIVER, S-9, AROCLOR 1254, Method: STANDARD PLATE): active; positive
mutagenic call [1]: active; positive
mutagenic call (Test System: AMES SALMONELLA TYPHIMURIUM, Strain/Indicator: TA98, Metabolic Activation: RAT, LIVER, S-9, AROCLOR 1254, Method: STANDARD PLATE): active; positive
mutagenic call [2]: active; positive
mutagenic call (Test System: AMES SALMONELLA TYPHIMURIUM, Strain/Indicator: TA100, Metabolic Activation: RAT, LIVER, S-9, AROCLOR 1254, Method: STANDARD PLATE): active; positive
mutagenic call (Test System: AMES SALMONELLA TYPHIMURIUM, Strain/Indicator: TA104, Metabolic Activation: NONE, Method: STANDARD PLATE): inactive; negative
mutagenic call (Test System: AMES SALMONELLA TYPHIMURIUM, Strain/Indicator: TA104, Metabolic Activation: RAT, LIVER, S-9, AROCLOR 1254, Method: STANDARD PLATE): active; positive
